pIC50: −log10 of the molar value.
Molecular target: T1, human adenosine A2b receptor (Homo sapiens, UniProt P29275)
T1 sequence (P29275 1-332): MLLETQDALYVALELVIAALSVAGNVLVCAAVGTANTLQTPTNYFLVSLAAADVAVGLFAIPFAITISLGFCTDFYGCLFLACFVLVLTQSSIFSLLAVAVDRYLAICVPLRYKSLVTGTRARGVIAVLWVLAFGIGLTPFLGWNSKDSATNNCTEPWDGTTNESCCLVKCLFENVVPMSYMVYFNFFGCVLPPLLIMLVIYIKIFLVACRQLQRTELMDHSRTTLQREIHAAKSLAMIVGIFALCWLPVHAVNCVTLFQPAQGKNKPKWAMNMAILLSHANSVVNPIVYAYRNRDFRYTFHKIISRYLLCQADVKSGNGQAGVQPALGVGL
Assay: Cellular in vitro reporter gene test for A2b receptor activity (antagonism of NECA)
Assay type: cell-based
Design: expressed in transfected cells; host or cells: CHO-K1 (Chinese hamster ovary) with CRE-luciferase reporter
Settings: recombinant CHO-K1 cells, CRE-luciferase reporter, co-incubation with EC50 concentration of NECA, 3 hours
Procedure: The identification of selective antagonists of the human adenosine A2b receptor and the quantification of the efficacy and selectivity of the compounds according to the invention was carried out with the aid of recombinant cell lines for the human adenosine receptors A1, A2a, A2b and A3. These cell lines were originally derived from an ovarepithelial cell of the hamster (Chinese Hamster Ovary, CHO-K1, American Type Culture Collection, Manassas, Va. 20108, USA). In addition to the respective recombinantly expressed adenosine receptor for testing the efficacy at the A1, A2a and A2b receptors, the cell lines contain a reporter gene construct where expression of the firefly (Photinus pyralis) luciferase is under the control of a promoter which can be activated via intracellular signal cascades by stimulation of the receptors with the (not subtype-selective) adenosine receptor agonist NECA (5′-N-ethylcarboxamidoadenosine) [S. J. Hill, J. G. Baker, S. Rhees, Curr. Opin. Pharmacol. 1, 526-532 (2001)].
In the case of the A2a and A2b cell lines, this is a minimal promoter having a plurality of cAMP-responsive elements (CRE). Stimulation of the Gs-coupled A2b or A2a receptors by NECA ultimately leads, via formation of cAMP, to CRE-dependent induction of luciferase expression, which is detected 3 hours after the start of the incubation with NECA using a detection solution in a suitable luminometer. For testing the antagonists, initially, in a pre-experiment, the concentration of NECA which, at the test day in question, results in half-maximum stimulation of luciferase expression (EC50 concentration) is determined. By joint incubation of this EC50 concentration of NECA with the substances to be tested, it is possible to determine their antagonistic activity.
Table 1 below lists the IC50 values from the A2b receptor assay for individual working examples (in some cases as means of a plurality of independent individual determinations and rounded to two significant figures; it may also be the case here that various independent preparations of the respective working example have been used): […]

Row | SMILES | pIC50
1 | Cc1c(Cn2nc[nH]c2=O)sc2c1c(=O)n(C1CC1)c(=O)n2CC(F)F [Example 199, 3-Cyclopropyl-1-(2,2-difluoroethyl)-5-methyl-6-[(5-oxo-4,5-dihydro-H-1,2,4-triazol-1-yl)methyl]thieno[2,3-d]pyrimidine-2,4(1H,3H)-dione] | 6.89
2 | Cc1c(CN2CCNC2=NC#N)sc2c1c(=O)n(C1CC1C)c(=O)n2CCOC(F)(F)F (single isomer, unassigned) [Example 266, [1-({5-Methyl-3-(2-methylcyclopropyl)-2,4-dioxo-1-[2-(trifluoromethoxy)ethyl]-1,2,3,4-tetrahydrothieno[2,3-d]pyrimidin-6-yl}methyl)imidazolidin-2-ylidene]cyanamide] | 9.02
3 | Cc1c(Cn2cc[nH]c2=O)sc2c1c(=O)n(C1CC1C)c(=O)n2CCOC(F)(F)F (single isomer, unassigned) [Example 272, 5-Methyl-3-(2-methylcyclopropyl)-6-[(2-oxo-2,3-dihydro-1H-imidazol-1-yl)methyl]-1-[2-(trifluoromethoxy)ethyl]thieno[2,3-d]pyrimidine-2,4(1H,3H)-dione] | 9.00
4 | Cc1c(CN2CCNC2=O)sc2c1c(=O)n(C1(C)CC1)c(=O)n2CCOC(F)(F)F [Example 75, 5-Methyl-3-(1-methylcyclopropyl)-6-[(2-oxoimidazolidin-1-yl)methyl]-1-[2-(trifluormethoxy)ethyl]thieno[2,3-d]pyrimidine-2,4(1H,3H)-dione] | 8.48
5 | Cc1c(Cn2[nH]ccc2=O)sc2c1c(=O)n(C1(C)CC1)c(=O)n2CCC(F)(F)F [Example 215, 5-Methyl-3-(1-methylcyclopropyl)-6-[(5-oxo-2,5-dihydro-1H-pyrazol-1-yl)methyl]-1-(3,3,3-trifluoropropyl)thieno[2,3-d]pyrimidine-2,4(1H,3H)-dione] | 7.14
6 | Cc1c(CN2CCNC2=O)sc2c1c(=O)n(C1CC1C)c(=O)n2CC1CCOC1 (single isomer, unassigned) [Example 291, 5-Methyl-3-(2-methylcyclopropyl)-6-[(2-oxoimidazolidin-1-yl)methyl]-1-(tetrahydrofuran-3-ylmethyl)thieno[2,3-d]pyrimidine-2,4(1H,3H)-dione] | 7.72
7 | Cc1c(CN2CCNC2=O)sc2c1c(=O)n(C1CC1(C)C)c(=O)n2CCCF (single isomer, unassigned) [Example 99, 3-(2,2-Dimethylcyclopropyl)-1-(3-fluoropropyl)-5-methyl-6-[(2-oxoimidazolidin-1-yl)methyl]thieno[2,3-d]pyrimidine-2,4(1H,3H)-dione] | 7.55
8 | Cc1c(CN2CCNC2=O)sc2c1c(=O)n(C1(C)CC1)c(=O)n2CCC(F)(F)F [Example 56, 5-Methyl-3-(1-methylcyclopropyl)-6-[(2-oxoimidazolidin-1-yl)methyl]-1-(3,3,3-trifluoropropyl)thieno[2,3-d]pyrimidine-2,4(1H,3H)-dione] | 8.44
9 | Cc1c(CN2CCNC2=O)sc2c1c(=O)n(C1CC1C)c(=O)n2CCCF (racemic) [Example 90, 1-(3-Fluoropropyl)-5-methyl-3-(2-methylcyclopropyl)-6-[(2-oxoimidazolidin-1-yl)methyl]thieno[2,3-d]pyrimidine-2,4(1H,3H)-dione] | 8.28
10 | COCCn1c(=O)n(C2CC2OC)c(=O)c2c(C)c(Cn3nc[nH]c3=O)sc21 (racemic) [Example 309, 3-(2-Methoxycyclopropyl)-1-(2-methoxyethyl)-5-methyl-6-[(5-oxo-4,5-dihydro-1H-1,2,4-triazol-1-yl)methyl]thieno[2,3-d]pyrimidine-2,4(1H,3H)-dione] | 6.96
11 | Cc1c(CN2CCNC(=O)C2=O)sc2c1c(=O)n(C1CCC1)c(=O)n2CCC(F)(F)F [Example 113, 3-Cyclobutyl-6-[(2,3-dioxopiperazin-1-yl)methyl]-5-methyl-1-(3,3,3-trifluoropropyl)thieno[2,3-d]pyrimidine-2,4(1H,3H)-dione] | 8.70
12 | CCCCn1c(=O)n([C@H]2C[C@@H]2C)c(=O)c2c(C)c(CN3CCNC3=O)sc21 [Example 230, 1-Butyl-5-methyl-3-[(1S,2S)-2-methylcyclopropyl]-6-[(2-oxoimidazolidin-1-yl)methyl]thieno[2,3-d]pyrimidine-2,4(1H,3H)-dione] | 8.89
13 | Cc1c(CN2CCNC2=NC#N)sc2c1c(=O)n(C1CC(F)(F)C1)c(=O)n2CCC(F)(F)F [Example 121, [1-{[3-(3,3-Difluorocyclobutyl)-5-methyl-2,4-dioxo-1-(3,3,3-trifluoropropyl)-1,2,3,4-tetrahydrothieno[2,3-d]pyrimidin-6-yl]methyl}imidazolidin-2-ylidene]cyanamide] | 7.82
14 | Cc1c(Cn2[nH]ccc2=O)sc2c1c(=O)n(C1CC(C)(C)C1)c(=O)n2CCC(F)(F)F [Example 314, 3-(3,3-Dimethylcyclobutyl)-5-methyl-6-[(5-oxo-2,5-dihydro-H-pyrazol-1-yl)methyl]-1-(3,3,3-trifluoropropyl)thieno[2,3-d]pyrimidine-2,4(1H,3H)-dione] | 7.31
15 | CCCn1c(=O)n(C2CC2C)c(=O)c2c(C)c(CN3CCNC3=O)sc21 (single isomer, unassigned) [Example 228, 5-Methyl-3-(2-methylcyclopropyl)-6-[(2-oxoimidazolidin-1-yl)methyl]-1-propylthieno[2,3-d]pyrimidine-2,4(1H,3H)-dione] | 8.24
16 | Cc1c(CN2CCNC2=O)sc2c1c(=O)n(C1CC1C)c(=O)n2CC1CCOC1 (single isomer, unassigned) [Example 290, 5-Methyl-3-(2-methylcyclopropyl)-6-[(2-oxoimidazolidin-1-yl)methyl]-1-(tetrahydrofuran-3-ylmethyl)thieno[2,3-d]pyrimidine-2,4(1H,3H)-dione] | 6.57
17 | Cc1c(CN2CCNC(=O)C2=O)sc2c1c(=O)n(C1CC(F)(F)C1)c(=O)n2CCC(F)(F)F [Example 123, 3-(3,3-Difluorocyclobutyl)-6-[(2,3-dioxopiperazin-1-yl)methyl]-5-methyl-1-(3,3,3-trifluoropropyl)thieno[2,3-d]pyrimidine-2,4(1H,3H)-dione] | 8.00
18 | Cc1c(CN2CCNC2=NC#N)sc2c1c(=O)n(C1(C)CCC1)c(=O)n2CCC(F)(F)F [Example 135, [1-{[5-Methyl-3-(1-methylcyclobutyl)-2,4-dioxo-1-(3,3,3-trifluoropropyl)-1,2,3,4-tetrahydrothieno[2,3-d]pyrimidin-6-yl]methyl}imidazolidin-2-ylidene]cyanamide] | 7.32
19 | CCCn1c(=O)n([C@H]2C[C@@H]2C)c(=O)c2c(C)c(Cn3nc[nH]c3=O)sc21 [Example 317, 5-Methyl-3-[(1S,2S)-2-methylcyclopropyl]-6-[(5-oxo-4,5-dihydro-1H-1,2,4-triazol-1-yl)methyl]-1-propylthieno[2,3-d]pyrimidine-2,4(1H,3H)-dione] | 7.72
20 | Cc1c(CN2CCNC2=O)sc2c1c(=O)n([C@H]1C[C@@H]1C)c(=O)n2CC1CC1(F)F (single isomer, unassigned) [Example 250] | 8.96
21 | Cc1c(CN2CCNC2=O)sc2c1c(=O)n(C1CC1)c(=O)n2CC1CCC1 [Example 17, 1-(Cyclobutylmethyl)-3-cyclopropyl-5-methyl-6-[(2-oxoimidazolidin-1-yl)methyl]thieno[2,3-d]pyrimidine-2,4(1H,3H)-dione] | 8.39
22 | COCCn1c(=O)n(C2CC3(CCC3)C2)c(=O)c2c(C)c(CN3CCNC3=NC#N)sc21 [Example 180, [1-{[1-(2-Methoxyethyl)-5-methyl-2,4-dioxo-3-(spiro[3.3]hept-2-yl)-1,2,3,4-tetrahydrothieno[2,3-d]pyrimidin-6-yl]methyl}imidazolidin-2-ylidene]cyanamide] | 7.89
23 | COCCn1c(=O)n([C@H]2C[C@@H](OC)C2)c(=O)c2c(C)c(Cn3nc[nH]c3=O)sc21 [Example 163, 3-(cis-3-Methoxycyclobutyl)-1-(2-methoxyethyl)-5-methyl-6-[(5-oxo-4,5-dihydro-1H-1,2,4-triazol-1-yl)methyl]thieno[2,3-d]pyrimidine-2,4(1H,3H)-dione] | 5.92
24 | CCc1c(CN2CCNC2=O)sc2c1c(=O)n(C1(C)CC1)c(=O)n2CCC(F)(F)F [Example 218, 5-Ethyl-3-(1-methylcyclopropyl)-6-[(2-oxoimidazolidin-1-yl)methyl]-1-(3,3,3-trifluoropropyl)thieno[2,3-d]pyrimidine-2,4(1H,3H)-dione] | 7.27
